From patent US5137887A, “Salts of optically active 4-hydroxy-8(3-lower alkoxy-4-phenylsulfinylphenyl)pyrazolo(1,5-A)-1,3,5- triazines and a process for production thereof” (Otsuka Pharmaceutical Factory, Inc., priority 1989, dated 1992)
Like-named read-outs stand apart in the source and are kept apart here.

Key:
[1] = Solubility test; format: physicochemical; settings: shaken at 25° C., HPLC
Method: Solubility tests with the above respective samples using water (distilled water for injection) and physiological saline as solvents were performed as follows.
Using an incubator (Taiyo Kagaku Kogyo, M-100), the tube was shaken at 25° C. After 4 hours, the content was filtered through a 0.45 μm filter and the filtrate was diluted 100-fold with mobile phase to prepare a test solution. Separately, 40.0 mg of Sample I (racemic form) was accurately weighed and made up with water to make exactly 200 ml. Then, 1 ml of this solution was accurately taken and diluted with mobile phase to make exactly 20 ml (10 μg/ml) of standard solution. Using the above test solutions and the standard solution, the solubilities of the respective samples were determined.

[2] = test system: xanthine dehydrogenase activity in the liver; test: Xanthine dehydrogenase inhibitory activity test (enzyme activity in liver after oral administration); format: in vivo; settings: male ICR rats, 5 mg/kg orally in 0.5% CMC; for Enzymatic activity in the liver isolated after 4 hr.: liver excised 4 hours after administration; for Enzymatic activity in the liver isolated after 8 hr.: liver excised 8 hours after administration
Method: Xanthine dehydrogenase inhibitory activity test
The test was performed using male ICR […] (aged 6 weeks, b.w. 28.0-40.6 g). The compounds of the invention as obtained in Example 2 were respectively suspended in 0.5% carboxymethylcellulose (CMC) solution and the suspensions were administered orally at the rate of 10 ml/kg (Test Group 1 and Test Group 2). The compound of the invention and its dosage used in each test group are shown below.
After 4 and 8 hours from the administration, animals in each group were sacrified, the liver was excised, and the xanthine dehydrogenase activity in the liver was assayed by the following general procedure.
Thus, a homogenate of the liver was diluted 5-fold with 100 mM Tris-HCl buffer (hereinafter referred to merely as buffer). Then, 50 μl of this dilution, 25 μl of a buffer dilution of NAD^+ (20 mM) and 25 μl of a buffer solution of potassium oxonate were added to 300 μl of the buffer (the concentrations of NAD^+ and potassium oxonate in the total solution were 1 mM each) and the mixture was incubated at 25° C. for 5 minutes. This incubate was centrifuged and the uric acid in the supernatant was estimated by high performance liquid chromatography (HPLC). The value was taken as the pre-treatment baseline.
On the other hand, to a preincubate obtained in the same manner as above was added 100 μl of a buffer solution of xanthine (1 mM) and the mixture was incubated at 25° C. for 5 minutes. The reaction was stopped with 50 μl of 6M perchloric acid and the reaction mixture was centrifuged in the same manner as above. The supernatant was neutralized with an aqueous solution of sodium dihydrogen phosphate and uric acid produced was assayed by HPLC. The value was taken as the post-treatment value.
From the difference between the above post-treatment value and pre-treatment baseline value of uric acid, xanthine dehydrogenase activity was determined.

[3] = water, water (distilled water for injection), read-out: Solubility in water
[4] = physiological saline, read-out: Solubility in physiological saline

COc1cc(-c2cnn3c([O-])ncnc23)ccc1[S+]([O-])c1ccccc1.O.[Na+] (racemic) [Sample I, Sodium (±)-8-(3-methoxy-4-phenylsulfinylphenyl)pyrazolo[1,5-a]-1,3,5-triazine-4-olate monohydrate, reference compound]
Solubility in physiological saline ([1]; physiological saline, 4 hours, listed as sodium salt of the racemic compound, monohydrate, 240 min): about 0.08 w/w % | Solubility in physiological saline ([1]; physiological saline, 4 hours, monohydrate, 240 min): 0.0083 w/w % | Solubility in water ([1]; water (distilled water for injection), 4 hours, listed as sodium salt of the above racemic compound, monohydrate, 240 min): about 0.2 w/w % | solubility at 4 h [1, 3]: 2.21 mg/mL

COc1cc(-c2cnn3c([O-])ncnc23)ccc1[S+]([O-])c1ccccc1.O.O.[Na+] (single isomer, unassigned) [Sample II, Sodium (-)-8-(3-methoxy-4-phenylsulfinylphenyl)pyrazolo[1,5-a]-1,3,5-triazine-4-olate dihydrate]
solubility at 4 h [1, 4]: ≥ 500 mg/mL | solubility at 4 h [1, 3]: ≥ 500 mg/mL | Enzymatic activity in the liver isolated after 4 hr. ([2]; control 152 ± 21, listed as Test group 1, dihydrate): 7 ± 4 mU/g | Enzymatic activity in the liver isolated after 8 hr. ([2]; control 137 ± 31, listed as Test group 1, dihydrate): 17 ± 7 mU/g

COc1cc(-c2cnn3c([O-])ncnc23)ccc1[S+]([O-])c1ccccc1.O.O.[Na+] (single isomer, unassigned) [Sample III, Sodium (+)-8-(3-methoxy-4-phenylsulfinylphenyl)pyrazolo[1,5-a]-1,3,5-triazine-4-olate dihydrate]
Enzymatic activity in the liver isolated after 4 hr. ([2]; control 152 ± 21, listed as Test group 2, dihydrate): 33 ± 16 mU/g | Enzymatic activity in the liver isolated after 8 hr. ([2]; control 137 ± 31, listed as Test group 2, dihydrate): 22 ± 10 mU/g

COc1cc(-c2cnn3c(O)ncnc23)ccc1[S+]([O-])c1ccccc1 (single isomer, unassigned) [Sample IV, Calcium bis[(-)-8-(3-methoxy-4-phenylsulfinylphenyl)pyrazolo[1,5-a]-1,3,5-triazine-4-olate] dihydrate]
solubility at 4 h [1, 4]: ≥ 500 mg/mL | solubility at 4 h ([1]; water (distilled water for injection), read-out: Solubility in water): ≥ 500 mg/mL
